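Method: 48-hour compound exposure of cells in 96-well plates, five concentrations, linear interpolation of endpoints. The concentration for 50% growth inhibition is given as GI50.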 Activity calls are given as the source filed them. Rule as the data show it: active = GI50 up to about 1.1 µM and inactive = higher.
What was measured:
Assay in all cases: NCI anticancer screen, dose series, 48 h
A498 = system: A498
CAKI-1 = system: CAKI-1
CCRF-CEM = system: CCRF-CEM
EKVX = system: EKVX
HCC 2998 = system: HCC 2998
HOP-62 = system: HOP-62
HT-29 = system: HT-29
IGROV-1 = system: IGROV-1
LOX IMVI = system: LOX IMVI
MCF7 = system: MCF7
MDA-MB-435 = system: MDA-MB-435
Malme-3M = system: Malme-3M
NCI/ADR-RES = system: NCI/ADR-RES
PC-3 = system: PC-3
SK-OV-3 = system: SK-OV-3
SN12C = system: SN12C
SNB-75 = system: SNB-75
MDA-N = system: MDA-N
RPMI-8226 = system: RPMI-8226
Hs-578T = system: Hs-578T

Measured: GI50

O=C(O)CCC(NC(=O)c1ccc(OCc2nc3cc(C(F)(F)F)ccc3nc2-c2ccccc2)cc1)C(=O)O (stereo unspecified)
inactive: A498 > 100 µM | CAKI-1 45.4 µM | CCRF-CEM > 100 µM | EKVX > 100 µM | HCC 2998 > 100 µM | HOP-62 > 100 µM | HT-29 > 100 µM | IGROV-1 > 100 µM | LOX IMVI > 100 µM | MCF7 > 100 µM | MDA-MB-435 > 100 µM | Malme-3M > 100 µM | NCI/ADR-RES > 100 µM | PC-3 > 100 µM | SK-OV-3 > 100 µM | SN12C > 100 µM | SNB-75 > 100 µM

CCOC(=O)C12CCC(=O)N1N(C)c1ncccc1N2 (stereo unspecified)
inactive: A498 > 100 µM | CAKI-1 > 100 µM | CCRF-CEM > 100 µM | EKVX > 100 µM | HCC 2998 77.4 µM | HOP-62 > 100 µM | HT-29 > 100 µM | IGROV-1 > 100 µM | LOX IMVI > 100 µM | MCF7 > 100 µM | MDA-MB-435 > 100 µM | MDA-N > 100 µM | NCI/ADR-RES > 100 µM | RPMI-8226 > 100 µM | SK-OV-3 > 100 µM | SNB-75 67.1 µM

CCCCCCN1C(=O)CC(=O)N(CCCCCC)S1(=O)=O
inactive: A498 14.7 µM | CAKI-1 22 µM | CCRF-CEM 21.7 µM | EKVX 20.8 µM | HOP-62 18.9 µM | HT-29 21.6 µM | Hs-578T 22 µM | IGROV-1 12.4 µM | LOX IMVI 13.6 µM | MCF7 36 µM | MDA-MB-435 22.3 µM | Malme-3M 23.5 µM | NCI/ADR-RES 21.7 µM | PC-3 23 µM | RPMI-8226 24.7 µM | SK-OV-3 21.8 µM | SN12C 17.7 µM | SNB-75 17.9 µM

COC(=N)CCCl
inactive: CAKI-1 > 100 µM | CCRF-CEM > 100 µM | EKVX > 100 µM | HCC 2998 > 100 µM | HOP-62 > 100 µM | HT-29 > 100 µM | IGROV-1 > 100 µM | MCF7 > 100 µM | MDA-N > 100 µM | Malme-3M > 100 µM | NCI/ADR-RES > 100 µM | PC-3 > 100 µM | RPMI-8226 > 100 µM | SK-OV-3 > 100 µM | SN12C > 100 µM | SNB-75 83.2 µM

N#CCCC1(CCC#N)CCCCCCC(CCC#N)(CCC#N)C(O)C1O (stereo unspecified)
inactive: A498 > 100 µM | CAKI-1 > 100 µM | HCC 2998 > 100 µM | HOP-62 > 100 µM | HT-29 > 100 µM | IGROV-1 > 100 µM | LOX IMVI > 100 µM | MCF7 > 100 µM | MDA-MB-435 > 100 µM | MDA-N > 100 µM | Malme-3M > 100 µM | NCI/ADR-RES > 100 µM | PC-3 > 100 µM | SK-OV-3 > 100 µM | SN12C 52.2 µM | SNB-75 > 100 µM

O=C(Cn1c2ccc(Br)cc2c2nc3ccccc3nc21)N/N=C/c1ccccc1
inactive: A498 > 100 µM | CAKI-1 > 100 µM | EKVX > 100 µM | HOP-62 19.1 µM | HT-29 > 100 µM | IGROV-1 > 100 µM | MCF7 > 100 µM | MDA-MB-435 > 100 µM | NCI/ADR-RES > 100 µM | PC-3 > 100 µM | RPMI-8226 > 10 µM | SK-OV-3 31.1 µM | SN12C > 100 µM | SNB-75 83.9 µM

Clc1nss/c1=N/c1nonc1-c1ccccc1
inactive: A498 71.6 µM | CAKI-1 17.1 µM | CCRF-CEM 17.9 µM | EKVX 37.4 µM | HCC 2998 > 100 µM | HOP-62 51.3 µM | HT-29 22 µM | IGROV-1 26.4 µM | LOX IMVI 27.3 µM | MCF7 22.7 µM | MDA-MB-435 38.6 µM | MDA-N 20.1 µM | Malme-3M 28 µM | NCI/ADR-RES 24 µM | PC-3 38.3 µM | RPMI-8226 27.2 µM | SK-OV-3 > 100 µM | SN12C 18 µM | SNB-75 23.2 µM

CN(C)/C=N/[C@@H](C(=O)O)c1ccccc1
inactive: A498 > 100 µM | CCRF-CEM > 100 µM | EKVX > 100 µM | HCC 2998 > 100 µM | HOP-62 > 100 µM | HT-29 > 100 µM | IGROV-1 > 100 µM | LOX IMVI > 100 µM | MCF7 > 100 µM | MDA-MB-435 > 100 µM | MDA-N > 100 µM | Malme-3M > 100 µM | NCI/ADR-RES > 100 µM | PC-3 > 100 µM | RPMI-8226 > 100 µM | SK-OV-3 > 100 µM | SN12C > 100 µM | SNB-75 > 100 µM

CCSCCCN(CCCSCC)CCCSCC
inactive: CCRF-CEM > 100 µM | HCC 2998 > 100 µM | HOP-62 > 100 µM | HT-29 > 100 µM | IGROV-1 88.3 µM | LOX IMVI > 100 µM | MCF7 > 100 µM | MDA-MB-435 > 100 µM | MDA-N > 100 µM | NCI/ADR-RES > 100 µM | PC-3 > 100 µM | SK-OV-3 > 100 µM | SN12C > 100 µM | SNB-75 > 100 µM

Nc1nnc2nc(CC(=O)/C=C/c3ccccc3)c(=O)[nH]n12
inactive: A498 > 100 µM | CAKI-1 > 100 µM | CCRF-CEM > 100 µM | EKVX > 100 µM | HCC 2998 > 100 µM | HOP-62 > 100 µM | HT-29 > 100 µM | IGROV-1 > 100 µM | LOX IMVI > 100 µM | Malme-3M > 100 µM | RPMI-8226 > 100 µM | SK-OV-3 > 100 µM | SN12C > 100 µM | SNB-75 > 100 µM

C=C1CC2CC(=O)C(O)C(C1)C2 (stereo unspecified)
inactive: A498 > 100 µM | CAKI-1 > 100 µM | CCRF-CEM > 100 µM | EKVX > 100 µM | HCC 2998 > 100 µM | HOP-62 > 100 µM | HT-29 > 100 µM | Hs-578T > 100 µM | LOX IMVI > 100 µM | MCF7 > 100 µM | MDA-MB-435 > 100 µM | MDA-N > 100 µM | NCI/ADR-RES > 100 µM | RPMI-8226 > 100 µM | SK-OV-3 > 100 µM | SN12C > 100 µM | SNB-75 58.5 µM

COc1cc(C(C)O)c(S(=O)(=O)CC(C)O)nn1 (stereo unspecified)
inactive: A498 > 100 µM | CAKI-1 > 100 µM | CCRF-CEM > 100 µM | EKVX 75.5 µM | HCC 2998 > 100 µM | HT-29 > 100 µM | Hs-578T > 100 µM | IGROV-1 > 100 µM | LOX IMVI > 100 µM | MCF7 > 100 µM | MDA-MB-435 > 100 µM | MDA-N > 100 µM | Malme-3M > 100 µM | NCI/ADR-RES > 100 µM | RPMI-8226 43.9 µM | SK-OV-3 > 100 µM | SN12C > 100 µM
